Source: patent publication US9399017B2, “Peptide pharmaceutical for oral delivery” (Enteris BioPharma, Inc., priority 2007, dated 2016)

Columns and labels:
[1] = Plasma sCT Cmax in Beagle dogs after oral tablet (ELISA); format: in vivo; conditions: for Cmax: Beagle, dog, plasma, po, 1.7 mg, oral tablet 1.7 mg sCT
Method: Following application of the indicated amounts of HPMC to the indicated weight gain (in those examples utilizing the undercoat), the tablets were then sealed with an enteric coat made of Eudragit L30D-55 to the indicated further weight gain. Beagle dogs were given a tablet of the indicated combination of undercoat-enteric coat and aliquots of blood were taken at 15 minute intervals for 4 hours. Plasma was separated from the blood samples and analyzed for sCT by ELISA.

[2] = cited from earlier work

## CC(C)C[C@H](NC(=O)[C@H](CCCCN)NC(=O)CNC(=O)[C@H](CC(C)C)NC(=O)[C@@H](NC(=O)[C@@H]1CSSC[C@H](N)C(=O)N[C@@H](CO)C(=O)N[C@@H](CC(N)=O)C(=O)N[C@@H](CC(C)C)C(=O)N[C@@H](CO)C(=O)N[C@@H]([C@@H](C)O)C(=O)N1)C(C)C)C(=O)N[C@@H](CO)C(=O)N[C@@H](CCC(N)=O)C(=O)N[C@@H](CCC(=O)O)C(=O)N[C@@H](CC(C)C)C(=O)N[C@@H](Cc1c[nH]cn1)C(=O)N[C@@H](CCCCN)C(=O)N[C@@H](CC(C)C)C(=O)N[C@@H](CCC(N)=O)C(=O)N[C@H](C(=O)N[C@@H](Cc1ccc(O)cc1)C(=O)N1CCC[C@H]1C(=O)N[C@@H](CCCNC(=N)N)C(=O)N[C@H](C(=O)N[C@@H](CC(N)=O)C(=O)N[C@H](C(=O)NCC(=O)N[C@@H](CO)C(=O)NCC(=O)N[C@H](C(=O)N1CCC[C@H]1C(N)=O)[C@@H](C)O)[C@@H](C)O)[C@@H](C)O)[C@@H](C)O [sCT, salmon calcitonin]
[1]; HPMC undercoat 0%, L30D-55 enteric coat 4% tablet weight gain
  Cmax: 0.07 ng/mL
[1]; HPMC undercoat 0%, L30D-55 enteric coat 7% tablet weight gain
  Cmax: 0.121 ng/mL
[1]; HPMC undercoat 3%, L30D-55 enteric coat 4% tablet weight gain
  Cmax: 0.142 ng/mL
[1]; HPMC undercoat 3%, L30D-55 enteric coat 7% tablet weight gain
  Cmax: 0.378 ng/mL
[1]; HPMC undercoat 6%, L30D-55 enteric coat 4% tablet weight gain
  Cmax: 0.667 ng/mL
[1]; HPMC undercoat 6%, L30D-55 enteric coat 7% tablet weight gain
  Cmax: 0.51 ng/mL
[1]; absence of an undercoat
  increase of sCT Cmax when amount of enteric coat was increased nearly 1.75 fold: 1.7 fold
[1]; one embodiment
  increase of sCT Cmax when an HPMC undercoat was included: more than 9 fold
[2]; injection at conventional dosages
  time after injection beyond which there are usually no detectable blood levels: more than two
[2]; patients
  peak levels at which some patients report side-effects such as flushing nausea: ≥ 200 picograms per milliliter
[2]; subcutaneous administration in man
  half-life: 20 to 40 min
[2]; subcutaneous administration, 100 International units
  peak serum concentration: about 250 picograms per milliliter
